In PubChem BioAssay AID248 (DTP/NCI, 2004):
Where “and” joins values, the source holds several entries; their conditions need not be identical. Equal entries are not always repeated. Toxic doses and inconclusive results are not listed. Rule as the data show it: active = T/C of 150% or more; inactive = T/C below 125%.

Tested on: L1210 leukemia ip in BDF1 mice, survival T/C
Assay: NCI In Vivo Anticancer Drug Screen. Data for tumor model L1210 Leukemia (intraperitoneal) in B6D2F1 (BDF1) mice
Conditions: endpoint: mean survival time, higher = longer survival
Procedure, shortened: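 Survival endpoint. Drug-treated group vs vehicle group, expressed as T divided by C. Tumor passaged by transplantation.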

[1] = dose: 50.0 mg/kg/injection, schedule: Q01DX001 (ip), vehicle: saline
[2] = dose: 100.0 mg/kg/injection, schedule: Q01DX001 (ip), vehicle: saline
[3] = dose: 200.0 mg/kg/injection, schedule: Q01DX001 (ip), vehicle: saline
[4] = dose: 400.0 mg/kg/injection, schedule: Q01DX001 (ip), vehicle: saline
[5] = dose: 100.0 mg/kg/injection, schedule: Q01DX009 (ip), vehicle: saline
[6] = dose: 200.0 mg/kg/injection, schedule: Q01DX009 (ip), vehicle: saline
[7] = dose: 400.0 mg/kg/injection, schedule: Q01DX009 (ip), vehicle: saline
[8] = dose: 100.0 mg/kg/injection, schedule: Q01DX001 (ip), vehicle: carboxymethylcellulose (CMC)
[9] = dose: 200.0 mg/kg/injection, schedule: Q01DX001 (ip), vehicle: carboxymethylcellulose (CMC)
[10] = dose: 400.0 mg/kg/injection, schedule: Q01DX001 (ip), vehicle: carboxymethylcellulose (CMC)
[11] = dose: 100.0 mg/kg/injection, schedule: Q04DX003 (ip), vehicle: saline
[12] = dose: 200.0 mg/kg/injection, schedule: Q04DX003 (ip), vehicle: saline
[13] = dose: 50.0 mg/kg/injection, schedule: Q01DX001 (ip), vehicle: carboxymethylcellulose (CMC)
[14] = dose: 100.0 mg/kg/injection, schedule: Q01DX009 (ip), vehicle: Klucel (hydroxypropylcellulose) (HPC)
[15] = dose: 200.0 mg/kg/injection, schedule: Q01DX009 (ip), vehicle: Klucel (hydroxypropylcellulose) (HPC)
[16] = dose: 400.0 mg/kg/injection, schedule: Q01DX009 (ip), vehicle: Klucel (hydroxypropylcellulose) (HPC)
[17] = dose: 100.0 mg/kg/injection, schedule: Q01DX009 (ip), vehicle: saline with Tween-80
[18] = dose: 400.0 mg/kg/injection, schedule: Q04DX003 (ip), vehicle: saline
[19] = dose: 100.0 mg/kg/injection, schedule: Q01DX001 (ip), vehicle: saline with Tween-80
[20] = dose: 200.0 mg/kg/injection, schedule: Q01DX001 (ip), vehicle: saline with Tween-80
[21] = dose: 400.0 mg/kg/injection, schedule: Q01DX001 (ip), vehicle: saline with Tween-80

Measured: T/C

COC1=C2C=[N+](C)C3C(=C2C=CC1OC)Cc1cc(OC)c(OC)cc13 (stereo not given)
inactive: [1] 98 % of control | [2] 93 % of control | [3] 102 % of control | [4] 96 % of control

CC(O)C(C)(C)CO (stereo not given)
inactive: [5] 94 % of control | [6] 95 % of control | [7] 90 % of control

CCCCCCCCC(=O)NCCCNC(=O)CCCCCCCC
inactive: dose: 30.0 mg/kg/injection, schedule: Q01DX001 (ip), vehicle: saline 96 % of control | [2] 91 % of control | dose: 300.0 mg/kg/injection, schedule: Q01DX001 (ip), vehicle: saline 93 % of control

CC12CCC(O)(CC1)CC2=O
inactive: dose: 75.0 mg/kg/injection, schedule: Q04DX002 (ip), vehicle: saline 95 % of control | dose: 150.0 mg/kg/injection, schedule: Q04DX002 (ip), vehicle: saline 95 % of control | dose: 300.0 mg/kg/injection, schedule: Q04DX002 (ip), vehicle: saline 103 % of control

CN(C)c1ncnc2c1c(Br)cn2C1OC(CO)C(O)C1O (stereo not given)
inactive: dose: 5.0 mg/kg/injection, schedule: Q01DX001 (ip), vehicle: saline 101 % of control | dose: 10.0 mg/kg/injection, schedule: Q01DX001 (ip), vehicle: saline 102 % of control | dose: 20.0 mg/kg/injection, schedule: Q01DX001 (ip), vehicle: saline 104 % of control | dose: 40.0 mg/kg/injection, schedule: Q01DX001 (ip), vehicle: saline 108 % of control

COc1ccc(/C=C/c2ccc3ccccc3n2)cc1
inactive: dose: 100.0 mg/kg/injection, schedule: Q04DX002 (ip), vehicle: Klucel (hydroxypropylcellulose) (HPC) 111 % of control | dose: 200.0 mg/kg/injection, schedule: Q04DX002 (ip), vehicle: Klucel (hydroxypropylcellulose) (HPC) 97 % of control | dose: 400.0 mg/kg/injection, schedule: Q04DX002 (ip), vehicle: Klucel (hydroxypropylcellulose) (HPC) 105 % of control

Nc1cccc2cccc([N+](=O)[O-])c12
inactive: [8] 100 % of control | [5] 87 % of control | [9] 94 % of control | [6] 94 % of control | [10] 96 % of control

O=C(Oc1cccc([N+](=O)[O-])c1)c1ccc([N+](=O)[O-])cc1O
inactive: [2] 95 % of control | [3] 95 % of control | [4] 97 % of control

NC(=O)c1c[n+]([O-])ccn1
inactive: dose: 50.0 mg/kg/injection, schedule: Q04DX003 (ip), vehicle: saline 108 % of control | [2] 96 % of control | [11] 101 % of control | [3] 98 % of control | [12] 113 % of control

NC(=O)c1c(Cl)cccc1Cl
inactive: dose: 100.0 mg/kg/injection, schedule: Q04DX003 (ip), vehicle: Klucel (hydroxypropylcellulose) (HPC) 111 % of control | dose: 200.0 mg/kg/injection, schedule: Q04DX003 (ip), vehicle: Klucel (hydroxypropylcellulose) (HPC) 101 % of control | dose: 400.0 mg/kg/injection, schedule: Q04DX003 (ip), vehicle: Klucel (hydroxypropylcellulose) (HPC) 101 % of control

COc1ccccc1CN1CCCN(Cc2ccccc2OC)C1c1ccccc1F
inactive: [13] 114 % of control | [8] 108 % of control | [9] 96 % of control | [10] 112 % of control

CCCCn1cncc1C
inactive: dose: 1.56 mg/kg/injection, schedule: Q01DX009 (ip), vehicle: saline 88 % of control | dose: 3.13 mg/kg/injection, schedule: Q01DX009 (ip), vehicle: saline 98 % of control | dose: 6.25 mg/kg/injection, schedule: Q01DX009 (ip), vehicle: saline 98 % of control and 104 % of control

CCCCCCCSc1nsc(SCCCCCCC)c1C#N
inactive: [14] 104 % of control | [15] 114 % of control | [16] 101 % of control

COc1n[n+]([O-])c(Cl)c(C)c1[N+](=O)[O-]
inactive: dose: 100.0 mg/kg/injection, schedule: Q04DX002 (ip), vehicle: saline with Tween-80 105 % of control | dose: 200.0 mg/kg/injection, schedule: Q04DX002 (ip), vehicle: saline with Tween-80 102 % of control | dose: 400.0 mg/kg/injection, schedule: Q04DX002 (ip), vehicle: saline with Tween-80 96 % of control

C[CH2][Sn]([Cl])([Cl])[CH2]C.Oc1ccccc1C=NCCN=Cc1ccccc1O
inactive: dose: 5.0 mg/kg/injection, schedule: Q01DX009 (ip), vehicle: saline with Tween-80 98 % of control | dose: 5.0 mg/kg/injection, schedule: Q04DX003 (ip), vehicle: saline with Tween-80 106 % of control | dose: 10.0 mg/kg/injection, schedule: Q01DX009 (ip), vehicle: saline with Tween-80 97 % of control | dose: 10.0 mg/kg/injection, schedule: Q04DX003 (ip), vehicle: saline with Tween-80 100 % of control | dose: 20.0 mg/kg/injection, schedule: Q04DX003 (ip), vehicle: saline with Tween-80 108 % of control

Nc1c(Cl)ncnc1Nc1ccccc1C(=O)O
inactive: [1] 102 % of control | [2] 93 % of control | [3] 98 % of control | [4] 98 % of control

O=c1cc(C2CCCCC2)[nH]c(=S)[nH]1
inactive: [13] 101 % of control | [8] 92 % of control | [9] 86 % of control | [10] 90 % of control

O=C(O)c1cnc[nH]1
inactive: [14] 100 % of control | [15] 92 % of control | [16] 94 % of control

OC(Cc1cnc2ccccc2n1)(C(F)(F)F)C(F)(F)F
inactive: [17] 98 % of control | dose: 200.0 mg/kg/injection, schedule: Q01DX009 (ip), vehicle: saline with Tween-80 94 % of control | dose: 400.0 mg/kg/injection, schedule: Q01DX009 (ip), vehicle: saline with Tween-80 95 % of control

Cl/C=C(\Cl)CCl
inactive: [17] 100 % of control | [11] 97 % of control | [12] 102 % of control | [18] 105 % of control

Cc1cc(=O)[nH]c2ccc(Cc3ccc4[nH]c(=O)cc(C)c4c3)cc12
inactive: [2] 102 % of control | [3] 102 % of control | [4] 107 % of control

CCOC(=O)C(C)(OCC)OCC
inactive: [5] 103 % of control | dose: 100.0 mg/kg/injection, schedule: Q01DX009 (ip), vehicle: water 100 % of control | [11] 109 % of control | dose: 100.0 mg/kg/injection, schedule: Q04DX003 (ip), vehicle: water 97 % of control | [6] 96 % of control | dose: 200.0 mg/kg/injection, schedule: Q01DX009 (ip), vehicle: water 100 % of control | [12] 96 % of control | dose: 200.0 mg/kg/injection, schedule: Q04DX003 (ip), vehicle: water 101 % of control | [7] 88 % of control | dose: 400.0 mg/kg/injection, schedule: Q01DX009 (ip), vehicle: water 91 % of control | [18] 102 % of control | dose: 400.0 mg/kg/injection, schedule: Q04DX003 (ip), vehicle: water 97 % of control

CC(=O)N(c1ccccc1)c1ccc([N+](=O)[O-])cc1[N+](=O)[O-]
inactive: [8] 107 % of control | dose: 177.0 mg/kg/injection, schedule: Q01DX001 (ip), vehicle: carboxymethylcellulose (CMC) 94 % of control and 115 % of control | [9] 96 % of control | dose: 266.0 mg/kg/injection, schedule: Q01DX001 (ip), vehicle: carboxymethylcellulose (CMC) 97 % of control and 103 % of control | [10] 97 % of control and 100 % of control | dose: 600.0 mg/kg/injection, schedule: Q01DX001 (ip), vehicle: carboxymethylcellulose (CMC) 100 % of control and 105 % of control

CCCCC(C)(O)c1cc(OC)cc(OC)c1 (stereo not given)
inactive: [19] 104 % of control | [20] 97 % of control | [21] 87 % of control

CC(I)CNc1ccc(C(=O)O)c(O)c1 (stereo not given)
inactive: dose: 100.0 mg/kg/injection, schedule: Q04DX003 (ip), vehicle: gum acacia 97 % of control | dose: 200.0 mg/kg/injection, schedule: Q04DX003 (ip), vehicle: gum acacia 89 % of control | dose: 400.0 mg/kg/injection, schedule: Q04DX003 (ip), vehicle: gum acacia 94 % of control

Oc1c(-c2ccccc2)c(-c2ccccc2)cc(-c2ccccc2)c1-c1ccccc1
inactive: [19] 102 % of control | [20] 94 % of control | [21] 88 % of control

O=C(O)C(CCc1ccccc1)N1CCOCC1 (stereo not given)
inactive: [5] 100 % of control | [6] 101 % of control | [7] 103 % of control
